Results published in the METLIN SMRT retention time set (Domingo-Almenara et al. 2019).

Assay: gradient 5% acetonitrile 3 min, to 50% in 2 min, to 85% in 15 min, held 3 min, 100 µL/min
Details: column: Zorbax Extend-C18 2.1 x 50 mm; eluents: water / acetonitrile, 0.1% formic acid
How it was run: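 The mobile phases were water and acetonitrile, each with 0.1% formic acid, pumped at 100 μL/min through a Zorbax Extend-C18 column (2.1 × 50 mm, 1.8 μm). Pure standards were injected as mixtures of ~100 molecules and detected by a quadrupole time-of-flight mass spectrometer in positive and negative ionization mode. Retention time came from computationally picked adduct peaks, each inspected by hand.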

Row | Structure (SMILES) | RP-LC retention time [s]
1 | CCn1c(=O)c(N2CCC(C(=O)NCCc3c[nH]c4ccc(Cl)cc34)CC2)nc2cccnc21 | 993
2 | Cc1ccc(N2CCN(Cc3nc(-c4ccc(N5CCCC5)nc4)no3)CC2)cc1 | 678
3 | COc1ccc(Cl)cc1C(=O)N1CCN(C2=NC=CN3CC(C)N=C23)CC1 (centres undefined) | 578
4 | CC(C)N1C(=O)c2cccnc2Sc2cc(NC(=O)c3cccnc3)ccc21 | 662
5 | CCc1ccc(-c2nc(-c3ccc(-n4ccnc4)nc3)no2)cc1 | 882
6 | COc1ccc(-c2nc3ccc(Br)cn3c2Nc2ccccc2C)cc1 | 830
7 | O=C(CCC(=O)N1CC2CCCN2c2ccccc21)N1CCN(Cc2ccccc2)CC1 (centres undefined) | 678
8 | CC(C)Cn1cc(CCNS(=O)(=O)c2ccc(C(C)C)cc2)c2cccnc21 | 1110
9 | COCCOC1CN(C2CCN(Cc3cccc(C#N)c3)CC2)C12CCCCC2 (centres undefined) | 557
10 | Oc1c(C(Nc2cccc(Cl)c2)c2cccnc2)ccc2cccnc12 (centres undefined) | 692
11 | COc1nccnc1N1CCC(NC(=O)CCc2c(C)noc2C)C1 (centres undefined) | 606
12 | O=S(=O)(NCc1nc(-c2cccc(-c3csc(C4CC4)n3)c2)no1)c1ccccc1 | 1080
13 | O=C(CCc1c(-c2ccccc2)nc2ccccn12)NC1CC1 | 561
14 | CCCNC(=O)C1CCCN(c2ccc(SCC(=O)Nc3ccc(C)c(F)c3)nn2)C1 (centres undefined) | 718
15 | CCCN1CCN(C(=O)c2ccc(-c3ccc(N4CCSCC4)nc3)cc2)CC1 | 560
16 | CCc1ccc(CNC(=O)c2nc3cccnc3n(CC(C)C)c2=O)cc1 | 1100
17 | Cc1[nH]c(C(=O)N2CCC(CC(=O)N3CCOCC3)CC2)c(C)c1C(=O)OC(C)C | 702
18 | COc1ccc(NS(=O)(=O)c2c(C)nn(-c3ccc(-c4ccc(C)cc4)nn3)c2C)cc1F | 999
19 | CCC(C)NC(=O)C1CCN(S(=O)(=O)c2ccc3c(c2)CCCC(=O)N3)CC1 (centres undefined) | 682
20 | Cc1nc(-n2cccc2)sc1C(=O)NCCN(C)C | 547
21 | Cc1cc(C2CCCN2C(=O)c2c(-c3ccccc3Cl)noc2C)on1 (centres undefined) | 816
22 | O=S(=O)(c1ccc2c(c1)OCCO2)N1CCC(CN2CCCCCC2)CC1 | 645
23 | CCN(CC)C(=O)C1CCCN(C(=O)c2nn(C)c3c2CN(C(=O)C2CCC2)CC3)C1 (centres undefined) | 681

Row | Structure (SMILES) | RP-LC retention time [s]
24 | COc1ccc(NC(=O)Nc2ccc3nc(C)n(-c4ccccc4)c(=O)c3c2)cc1OC | 679
25 | COc1ccc(S(=O)(=O)N2CC3CN(C(=O)c4ccc(C#N)cc4)CC(C2)O3)cc1 | 773
26 | [C-]#[N+]/C(C(=O)Nc1ccc(C(F)(F)F)cc1)=C(\C)O | 846
27 | Cc1cc(C)c(S(=O)(=O)N2CCN(C(=O)c3ccc4c(c3)OCO4)CC2)c(C)c1 | 912
28 | CC(=O)N1CCCSc2ccc(S(=O)(=O)N3CCC(CN4CCc5ccccc5C4)CC3)cc21 | 671
29 | c1ccc(-c2nc(CC3CCNC3)no2)cc1 (centres undefined) | 608
30 | CCn1cnc(S(=O)(=O)N2CCCC(C(=O)Nc3ccc(C)c(C)c3)C2)c1 (centres undefined) | 800
31 | CS(=O)(=O)N1CCCC(c2nnc(-c3ccccc3F)s2)C1 (centres undefined) | 757
32 | CCc1noc(NC(C)=O)c1-c1ccc(C)c(S(=O)(=O)N(CC)CC)c1 | 836
33 | COc1ccc(S(=O)(=O)N2CCCC(C(=O)N3CCOCC3)C2)cc1Cl (centres undefined) | 766
34 | COc1cccc(CNc2nccc(-n3nc(C)cc3C)n2)c1 | 808
35 | C=CCN(c1ccccc1)c1nc(C(=O)OCC)nc2ccccc12 | 1000
36 | CCc1ccc(NC(=O)N2CCC(c3nc4cccnc4n3C)C2)cc1 (centres undefined) | 711
37 | COc1ccc(C2(C(=O)N3CCC(c4nc(CCOCc5ccccc5)no4)C3)CC2)cc1 (centres undefined) | 958
38 | CC1=NS(=O)(=O)N(C)C=C1C(=O)OCc1nc(-c2ccc(OC(F)(F)F)cc2)no1 | 1100
39 | O=C(NCc1ccccc1)C1CCN(S(=O)(=O)c2cc(-c3noc(C4CCC4)n3)cs2)CC1 | 1020
40 | COc1cccc(NC(=O)c2c[nH]c3nc(C)ccc3c2=O)c1 | 791
41 | CC(NC(=O)Cn1c(=O)n(-c2ccc(F)cc2)c2ncccc21)c1ccccn1 (centres undefined) | 627
42 | Cc1nc2cc(N3CCCC(C(=O)N4CCN(c5ccccn5)CC4)C3)cnc2nc1C (centres undefined) | 581
43 | CC(C)CC(NC(=O)[C@H]1CCCN1C(=O)OCc1ccccc1)C(=O)NCC(=O)NO (some centres undefined) | 648
44 | CCc1cc(=O)n(CC(=O)NC(C)CCc2ccccc2)c(-c2ccccc2)n1 (centres undefined) | 1190
45 | O=C(Nc1ccc(C2(C(=O)N3CCCCCC3)CCC2)cc1)C1CC1 | 844
46 | O=C(Nc1nc2ccc(F)cc2s1)c1ccccc1Br | 900

Row | Structure (SMILES) | RP-LC retention time [s]
47 | O=C1CN(c2ncnc3[nH]ncc23)CC(=O)N1CCc1ccccc1 | 662
48 | COc1ccc(-c2ccnc3nc(-c4ccccc4OC)nn23)cc1OC | 804
49 | CN1CCN(S(=O)(=O)c2ccc(F)c(Cl)c2)CC1 | 530
50 | O=C(CSc1ncccn1)N1CCC(Cc2ccccc2)CC1 | 820
51 | CC(COc1ccccc1)NC(C)C(O)c1ccc(O)cc1 (centres undefined) | 686
52 | CCN1CCn2cc(S(=O)(=O)Nc3ccc(C(=O)OC)cc3)cc2C1=O | 692
53 | COC(=O)c1c(C)[nH]c(C(=O)N2CCC(CC(=O)NCc3ccc(SC)cc3)CC2)c1C | 774
54 | CCOC(=O)c1cc2c(cn1)[nH]c1ccccc12 | 691
55 | O=S(=O)(Nc1ccc(F)cc1)c1cccnc1Nc1ccc(F)c(F)c1 | 1080
56 | O=C(NCCc1ccccc1)C1CC(=O)N(CCc2c[nH]c3ccc(F)cc23)C1 (centres undefined) | 867
57 | CCN1CCN(c2cc(C)c3cc(NC(=O)Cc4cccs4)ccc3n2)CC1 | 578
58 | Cc1c(C(=O)O)sc2nc(SCC(=O)Nc3ccccc3C(F)(F)F)[nH]c(=O)c12 | 669
59 | O=C(NCc1ccc(-c2nc(C3CC3)no2)s1)c1ccc(F)cc1F | 956
60 | CCc1nnc(-c2cccnc2N2CCN(C(=O)Nc3cc(F)cc(F)c3)CC2)o1 | 850
61 | CCc1noc(NC(C)=O)c1-c1ccc(OC)c(S(=O)(=O)NC2CCCCCCC2)c1 | 939
62 | CCOC(=O)c1[nH]c(C)c(CCC(=O)N2CCC(C(=O)NC3CCCCCC3)CC2)c1C | 823
63 | Cc1ccc(CNC(=O)C2(CCO)CCN(c3ncccn3)C2)o1 (centres undefined) | 602
64 | O=C1CC(c2ccc3c(c2)OCO3)c2scc(S(=O)(=O)c3ccccc3)c2N1 (centres undefined) | 905
65 | CCc1noc(NC(C)=O)c1-c1ccc(OC)c(S(=O)(=O)Nc2cccc(C(F)(F)F)c2)c1 | 862
66 | CCOc1ccc(-n2nc(CO)c(C(=O)NC3CC3)n2)cc1 | 814
67 | Cc1cnc(-c2ccncc2)n1C1CCN(S(=O)(=O)c2ccc3c(c2)CCC3)C1 (centres undefined) | 605
68 | O=C(NCc1ccc(F)cc1F)c1cc2n(n1)CCCC2 | 812
69 | Cc1noc2nc(C)n(CC(=O)NCc3ccccc3F)c(=O)c12 | 710

Row | Structure (SMILES) | RP-LC retention time [s]
70 | COc1ccc(S(=O)(=O)N2C[C@@H](F)C[C@H]2C(=O)N2CCOCC2)cc1OC | 640
71 | Cc1ccc(-c2noc(C3CCCN3C(=O)C3CC(=O)N(c4ccc(C)cc4)C3)n2)cc1 (centres undefined) | 989
72 | CCN1C(=O)C2(CCN(S(=O)(=O)c3ccc(C)c(F)c3)CC2)c2ccccc21 | 1120
73 | O=C(c1ccc(Cl)cc1Cl)N1CC(c2nc(C3CC3)no2)C1 | 818
74 | Cc1ccc(-c2[nH]ncc2CNS(=O)(=O)c2cccc3nsnc23)cc1C | 802
75 | Cc1ccc(NC(=O)N2[C@H]3CC[C@@H]2c2cncnc2C3)cc1F | 738
76 | CCOc1ccccc1NS(=O)(=O)c1cc(-c2c(CC)noc2NC(C)=O)ccc1OC | 840
77 | COc1cc(OC)cc(C(=O)N2CCC3(C2)C(=O)Nc2ccccc23)c1 (centres undefined) | 707
78 | COCCN(Cc1cccs1)C(=O)CN1C[C@H]2C[C@H](C1)[C@H]1CCCC(=O)N1C2 | 556
79 | CCc1ccc(OCC(=O)OCCNC(=O)c2ccncc2)cc1 | 673
80 | Cc1nn(C)c(C)c1S(=O)(=O)N1CCC2(CC1)C(=O)N(C(C)C)C2c1ccccc1 (centres undefined) | 837
81 | O=C(CCCS(=O)(=O)Cc1ccccc1)NCc1ccccc1 | 694
82 | COCCCNC(=O)CN1C(=O)C2CCCCN2c2ccc(C(=O)N(C)C)cc21 (centres undefined) | 655
83 | O=C(COc1ccccc1)NCc1c(-c2ccccc2)nc2n1CCS2 | 678
84 | O=C(NCc1ccccc1Cl)C1CCN(C(=O)c2sccc2-n2cccc2)CC1 | 863
85 | CCc1nc(-c2csc(S(=O)(=O)N3CCC(C(=O)Nc4ccc(Cl)cc4C)CC3)c2)no1 | 1180
86 | COCC(C)(O)CNC(=O)Cc1cccc(C)c1 (centres undefined) | 621
87 | COc1cccc(CNC(=O)N2c3ccccc3CC2c2nc(C3CC3)no2)c1 (centres undefined) | 775
88 | Cc1sc2ccn(C)c(=O)c2c1C(=O)NCc1ccc(F)cc1Cl | 827
89 | Cc1ccc(-n2c(N3CCCC(C(=O)NCC4CC4)C3)nc3ccsc3c2=O)cc1 (centres undefined) | 805
